Assay results taken from patent US20210285949A1 (priority 2020, published 2021).
Read-outs that look alike come from different tables or passages of the source.

Key:
[1] = test system: patients with septic shock and elevated adrenomedullin; test: AdrenOSS-2 phase II clinical trial; format: in vivo, human
Source text: AdrenOSS-2 is a double-blind, placebo-controlled, randomized, multicenter, proof of concept and dose-finding phase II clinical trial to investigate the safety, tolerability and efficacy of the N-terminal ADM antibody named Adrecizumab in patients with septic shock and elevated adrenomedullin (Geven et al. BMJ Open 2019; 9:e024475). In total, 301 patients with septic shock and bio-ADM concentration >70 pg/mL were randomized (2:1:1) to treatment with a single intravenous infusion over approximately 1 hour with either placebo (n=152), adrecizumab […] (n=72) or Adrecizumab […] (n=77). All-cause mortality within 28 (90) days after inclusion was 25.8% (34.8%). Mean age was 68.4 years and 61% were male. For the per protocol analysis, n=294 patients remained eligible, and 14-day all-cause mortality rate was 18.5%.
Furthermore, different subpopulations of the cohort were analyzed. Main outcomes were 28-day mortality, change in Horovitz Index (PaO2/FiO2) (at 24 h/48 h/72 h), change in SOFA score (at 24 h/48 h/72 h) or change in respiratory SOFA score component (also based on PaO2/FiO2) (at 24 h/48 h/72 h). All p-values are 2-sided and a p-value of 0.20 should be considered significant.

[2] = test system: mice with CLP-induced sepsis; conditions: pre-treatment, cited from earlier work
[3] = test system: endotoxemic rats; conditions: pre-treatment; cited from earlier work
[4] = cited from earlier work
[5] = test system: extreme-critically ill COVID-19 patients with acute respiratory distress syndrome (ARDS); conditions: cited from earlier work

Adrecizumab: humanized N-terminal anti-ADM monoclonal antibody, heavy chain SEQ ID NO: 35, light chain SEQ ID NO: 36
change in Horovitz-Index ([1]; Horovitz-Index <170 and mechanical ventilation (n=48), after 24 hours (0.48)): trended to be higher | change in SOFA score vs placebo ([1]; Horovitz-Index <170 and mechanical ventilation (n=48), after 24 hours, p=0.032): significantly lower | change in SOFA score vs placebo ([1]; Horovitz-Index <170 and mechanical ventilation (n=48), after 48 hours, p=0.012): significantly lower | change in Horovitz-Index, mean increase ([1]; Horovitz-Index <170 and mechanical ventilation (n=48), after 48 hours, p=0.09): 64.2 | change in SOFA score vs placebo ([1]; Horovitz-Index <170 and mechanical ventilation (n=48), after 72 hours, p=0.028): significantly lower | change in Horovitz-Index, mean increase ([1]; Horovitz-Index <170 and mechanical ventilation (n=48), after 72 hours, p=0.11): 66.4 | 28-day mortality vs placebo ([1]; Horovitz-Index <170 and mechanical ventilation at baseline (n=48), p=0.37): trended to be lower | change in SOFA score vs placebo ([1]; mechanical ventilation at baseline (n=161), after 24 hours, p=0.002): significantly lower | change in respiratory SOFA score vs placebo ([1]; mechanical ventilation at baseline (n=161), after 24 hours, p=0.021): significantly lower | change in Horovitz-Index ([1]; mechanical ventilation at baseline (n=161), after 48 hours, p=0.007): significantly higher | change in respiratory SOFA score vs placebo ([1]; mechanical ventilation at baseline (n=161), after 48 hours, p=0.011): significantly lower | change in SOFA score vs placebo ([1]; mechanical ventilation at baseline (n=161), after 48 hours, p=0.109): significantly lower | change in respiratory SOFA score vs placebo ([1]; mechanical ventilation at baseline (n=161), after 72 hours, p=0.066): significantly lower | change in Horovitz-Index ([1]; mechanical ventilation at baseline (n=161), after 72 hours, p=0.087): significantly higher | change in SOFA score vs placebo ([1]; mechanical ventilation at baseline (n=161), after 72 hours, p=0.31): trended to be lower | change in Horovitz-Index, mean increase ([1]; mechanical ventilation at baseline (n=161), at 24 hours, p=0.155): 56.2 | 28-day mortality vs placebo ([1]; mechanical ventilation at baseline (n=161), p=0.157): significantly lower | change in SOFA score vs placebo ([1]; shock patients with ALI/ARDS (n=80), after 24 hours, p=0.005): significantly lower | change in respiratory SOFA score vs placebo ([1]; shock patients with ALI/ARDS (n=80), after 24 hours, p=0.26): trended to be lower | change in SOFA score vs placebo ([1]; shock patients with ALI/ARDS (n=80), after 48 hours, p=0.025): significantly lower | change in respiratory SOFA score vs placebo ([1]; shock patients with ALI/ARDS (n=80), after 48 hours, p=0.09): significantly lower | change in SOFA score vs placebo ([1]; shock patients with ALI/ARDS (n=80), after 72 hours, p=0.38): trended to be lower | renal vascular leakage ([2]; mice with CLP-induced sepsis): attenuated | 7-day survival ([2]; repeated dose administration (control 0%)): 40% | 7-day survival ([2]; single dose administration (control 10%)): 50% | renal vascular leakage [3]: attenuated | circulating ADM following administration ([4]; animal and human data): potent, dose-dependent increase | safety and tolerability, serious adverse events ([4]; phase I study): no serious adverse events were observed | mortality ([5]; compared with mortality calculated by the SOFA score): lower than expected | PaO2/FiO2 ([5]; single dose, within 12 days): increased | SOFA score and disease severity score ([5]; single dose, within 12 days): decreased in five out of the seven surviving patients | inflammatory parameters C-reactive protein, procalcitonin, and interleukin-6 ([5]; single dose): decreased
